Usually pEC50 stands for the negative decadic logarithm of the EC50, by convention in mol/L. A lower pEC50 goes with a large EC50.

pEC50: −log10 of the molar value.

Among the data in US9296758B2, “2-quinolinyl-acetic acid derivatives as HIV antiviral compounds” (GILEAD SCIENCES, INC., priority 2010, dated 2016) are EC50 values, retold here.

For the assay, the system named is HIV-IIIb. Kind of assay: Test A: Antiviral Assays in MT4 Cells. It is filed as cell-based. To be noted: MT-4 cells infected with HIV-IIIb (0.004 m.o.i.), 5 days of incubation, CellTiter-Glo chemiluminescence readout. As to the method: Test A: Antiviral Assays in MT4 Cells For the antiviral assay utilizing MT-4 cells, 0.4 μL of 189X test concentration of 3-fold serially diluted compound in DMSO was added to 40 μL of cell growth medium (RPMI 1640, 10% FBS, 1% penicillin/Streptomycin, 1% L-Glutamine, 1% HEPES) in each well of 384-well assay plates (10 concentrations) in quadruplicate. 1 mL aliquots of 2×10e6 MT-4 cells are pre-infected for 1 and 3 hrs respectively, @ 37° C. with 25 μL (MT4) or of either cell growth medium (mock-infected) or a fresh 1:250 dilution of an HIV-IIIb concentrated ABI stock (0.004 m.o.i. for MT4 cells). Infected and uninfected cells are diluted in cell growth medium and 35 uL of 2000 (for MT4) cells is added to each well of the assay plates. Assay plates were then incubated in a 37° C. incubator. After 5 days of incubation, 25 μl of 2× concentrated CellTiter-Glo™ Reagent (catalog #G7573, Promega Biosciences, Inc., Madison, Wis.) was added to each well of the assay plate. Cell lysis was carried out by incubating at room temperature for 2-3 min and then chemiluminescence was read using the Envision reader (PerkinElmer).
Background: Cellular ATP, detected with luciferase, serves as a proxy for viable cell number.

The mark [1] stands for this setting: Human immunodeficiency virus 1, IIIB, MT4, 120 h.

The molecule `Cc1cc2nc(C3CCCC3)ccc2c(-c2ccc3c4c(ccnc24)CCO3)c1[C@H](OC(C)(C)C)C(=O)O` (atropisomer, axis not shown) [Compound 51, (S)-2-tert-Butoxy-2-((R)-2-cyclopentyl-5-(2,3-dihydropyrano[4,3,2-de]quinolin-7-yl)-7-methylquinolin-6-yl)acetic acid] gave a pEC50 under setting [1] of 7.52.
Take `Cc1cc2nc(-c3cccs3)ccc2c(-c2ccc3c4c(ccnc24)CCO3)c1[C@H](OC(C)(C)C)C(=O)O` [Compound 69, (S)-2-tert-butoxy-2-((R)-5-(2,3-dihydropyrano[4,3,2-de]quinolin-7-yl)-7-methyl-2-(thiophen-2-yl)quinolin-6-yl)acetic acid]: the pEC50 is 7.09.
In turn, `CCOC(=O)c1ccc2c(-c3ccc(Cl)cc3)c([C@H](OC(C)(C)C)C(=O)O)c(C)cc2n1` [Compound 13, (S)-2-tert-Butoxy-2-(5-(4-chlorophenyl)-2-(ethoxycarbonyl)-7-methylquinolin-6-yl)acetic acid] had a pEC50 under setting [1] of 6.82.
As for `Cc1cc2nc(CC(C)C)ccc2c(-c2ccc3c4c(ccnc24)CCO3)c1[C@H](OC(C)(C)C)C(=O)O` (atropisomer, axis not shown) [Compound 50, (S)-2-tert-butoxy-2-((R)-5-(2,3-dihydropyrano[4,3,2-de]quinolin-7-yl)-2-isobutyl-7-methylquinolin-6-yl)acetic acid], the pEC50 under setting [1] is 7.62. Compared with the last molecule, the pEC50 is 0.80 log units higher.
Regarding `Cc1cc2c(ccc(=O)n2Cc2ccccc2)c(-c2ccc3c4c(ccnc24)CCO3)c1[C@H](OC(C)(C)C)C(=O)O` (atropisomer, axis not shown) [Compound 68, (S)-2-((R)-1-benzyl-5-(2,3-dihydropyrano[4,3,2-de]quinolin-7-yl)-7-methyl-2-oxo-1,2-dihydroquinolin-6-yl)-2-tert-butoxyacetic acid], the pEC50 under setting [1] is 4.54. Against the preceding molecule, the pEC50 is 3.08 log units lower.
Regarding `Cc1cc2nc(CCC3CC3)ccc2c(-c2ccc3c4c(ccnc24)CCO3)c1[C@H](OC(C)(C)C)C(=O)O` (atropisomer, axis not shown) [Compound 43, (S)-2-tert-Butoxy-2-((R)-2-(2-cyclopropylethyl)-5-(2,3-dihydropyrano[4,3,2-de]quinolin-7-yl)-7-methylquinolin-6-yl)acetic acid], the pEC50 under setting [1] is 7.57.
As for `Cc1cc2nc(CCc3ccccc3)ccc2c(-c2ccc(Cl)cc2)c1[C@H](OC(C)(C)C)C(=O)O` [Compound 37B, (S)-2-tert-butoxy-2-(5-(4-chlorophenyl)-7-methyl-2-phenethylquinolin-6-yl)acetic acid], the pEC50 under setting [1] was 7.34. This pEC50 lies 0.23 log units lower than the previous one.
`Cc1cc2c(ccc3nccn32)c(-c2ccc(Cl)cc2)c1[C@H](OC(C)(C)C)C(=O)O` [Compound 62, (S)-2-tert-Butoxy-2-(6-(4-chlorophenyl)-8-methylimidazo[1,2-a]quinolin-7-yl)acetic acid] gave a pEC50 under setting [1] of 7.14.
Under setting [1], `Cc1cc2nc(-c3ccncc3)ccc2c(-c2ccc(Cl)cc2)c1[C@H](OC(C)(C)C)C(=O)O` [Compound 73, (S)-2-tert-butoxy-2-(5-(4-chlorophenyl)-7-methyl-2-(pyridin-4-yl)quinolin-6-yl)acetic acid] gave a pEC50 of 6.61.
`Cc1cc2c(ccc(=O)n2Cc2ccccc2)c(-c2ccc(Cl)cc2)c1[C@H](OC(C)(C)C)C(=O)O` [Compound 65B, (S)-2-(1-benzyl-5-(4-chlorophenyl)-7-methyl-2-oxo-1,2-dihydroquinolin-6-yl)-2-tert-butoxyacetic acid] showed a pEC50 under setting [1] of 7.26.
`Cc1cc2nc(-c3ccccc3)ccc2c(-c2ccc3c4c(ccnc24)CCO3)c1[C@H](OC(C)(C)C)C(=O)O` (atropisomer, axis not shown) [Compound 57, (S)-2-tert-Butoxy-2-((R)-5-(2,3-dihydropyrano[4,3,2-de]quinolin-7-yl)-7-methyl-2-phenylquinolin-6-yl)acetic acid] showed a pEC50 under setting [1] of 7.70.
Take `Cc1ccc2c(-c3ccc(-c4ccccc4)cc3)c(C(OC(C)(C)C)C(=O)O)c(C)cc2n1` (stereo not drawn) [Compound 19, 2-(5-(Biphenyl-4-yl)-2,7-dimethylquinolin-6-yl)-2-tert-butoxyacetic acid]: under setting [1], the pEC50 is 4.28.
Take `Cc1cc2nc(-c3cncn3C)ccc2c(-c2ccc(Cl)cc2)c1[C@H](OC(C)(C)C)C(=O)O` [Compound 82, (S)-2-tert-Butoxy-2-(5-(4-chlorophenyl)-7-methyl-2-(1-methyl-1H-imidazol-5-yl)quinolin-6-yl)acetic acid]: the pEC50 under setting [1] is 6.77.
`Cc1cc2nc(-c3ccn[nH]3)ccc2c(-c2ccc3c4c(ccnc24)CCO3)c1[C@H](OC(C)(C)C)C(=O)O` (atropisomer, axis not shown) [Compound 71, (S)-2-tert-butoxy-2-((R)-5-(2,3-dihydropyrano[4,3,2-de]quinolin-7-yl)-7-methyl-2-(1H-pyrazol-5-yl)quinolin-6-yl)acetic acid] showed a pEC50 under setting [1] of 6.93.
Under setting [1], `Cc1cc2nc(C(C)C)ccc2c(-c2ccc3c4c(ccnc24)CCO3)c1[C@H](OC(C)(C)C)C(=O)O` [Compound 46, (S)-2-tert-Butoxy-2-((R)-5-(2,3-dihydropyrano[4,3,2-de]quinolin-7-yl)-2-isopropyl-7-methylquinolin-6-yl)acetic acid] gave a negative logarithm of the EC50 (pEC50) of 7.70.
Consider `Cc1cc2nc(CN(C)C)ccc2c(-c2ccc3c4c(ccnc24)CCO3)c1[C@H](OC(C)(C)C)C(=O)O` [Compound 20, (S)-2-tert-butoxy-2-((R)-5-(2,3-dihydropyrano[4,3,2-de]quinolin-7-yl)-2-((dimethylamino)methyl)-7-methylquinolin-6-yl)acetic acid], for which the pEC50 is 5.76.
Regarding `Cc1ccc2c(-c3ccc(Cl)cc3)c([C@H](OC(C)(C)C)C(=O)O)c(Cl)cc2n1` [Compound 1L, (S)-2-tert-butoxy-2-(7-chloro-5-(4-chlorophenyl)-2-methylquinolin-6-yl)acetic acid], under setting [1], the negative-log EC50 (pEC50) is 6.77.
For `Cc1cccc(C)c1-c1ccc2c(-c3ccc4c5c(ccnc35)CCO4)c([C@H](OC(C)(C)C)C(=O)O)c(C)cc2n1` [Compound 54, (S)-2-tert-Butoxy-2-((R)-5-(2,3-dihydropyrano[4,3,2-de]quinolin-7-yl)-2-(2,6-dimethylphenyl)-7-methylquinolin-6-yl)acetic acid], under setting [1], the pEC50 is 7.06. Compared with the last molecule, the pEC50 is 0.29 log units higher.
The molecule `Cc1cc2nc(-n3ccnc3)ccc2c(-c2ccc3c4c(ccnc24)CCO3)c1[C@H](OC(C)(C)C)C(=O)O` [Compound 98, (S)-2-tert-butoxy-2-((R)-5-(2,3-dihydropyrano[4,3,2-de]quinolin-7-yl)-2-(1H-imidazol-1-yl)-7-methylquinolin-6-yl)acetic acid] gave a pEC50 under setting [1] of 6.60. Against the preceding molecule, the pEC50 is 0.46 log units lower.
As to `Cc1ccc2c(-c3ccc(Cl)cc3Cl)c([C@H](OC(C)(C)C)C(=O)O)c(C)cc2n1` [Compound 5J, (S)-2-tert-butoxy-2-((S)-5-(2,4-dichlorophenyl)-2,7-dimethylquinolin-6-yl)acetic acid], the pEC50 is 7.72.
Turning to `Cc1cc2nc(-c3ccccn3)ccc2c(-c2ccc3c4c(ccnc24)CCO3)c1[C@H](OC(C)(C)C)C(=O)O` (atropisomer, axis not shown) [Compound 80, (S)-2-tert-Butoxy-2-((R)-5-(2,3-dihydropyrano[4,3,2-de]quinolin-7-yl)-7-methyl-2-(pyridin-2-yl)quinolin-6-yl)acetic acid], the negative logarithm of the EC50 (pEC50) under setting [1] was 7.28.
For the molecule `Cc1cc2nc(-c3cccc(Cl)c3)ccc2c(-c2ccc3c4c(ccnc24)CCO3)c1[C@H](OC(C)(C)C)C(=O)O` (atropisomer, axis not shown) [Compound 55, (S)-2-tert-Butoxy-2-((R)-2-(3-chlorophenyl)-5-(2,3-dihydropyrano[4,3,2-de]quinolin-7-yl)-7-methylquinolin-6-yl)acetic acid], under setting [1], the pEC50 was 7.39.
As for `Cc1ccc2c(-c3ccc4c(c3Cl)NCCO4)c([C@H](OC(C)(C)C)C(=O)O)c(C)cc2n1` (atropisomer, axis not shown) [Compound 105], the pEC50 was 6.98.
Turning to `Cc1cc2nc(N3CCC3)ccc2c(-c2ccc3c4c(ccnc24)CCO3)c1[C@H](OC(C)(C)C)C(=O)O` (atropisomer, axis not shown) [Compound 95, (S)-2-((R)-2-(azetidin-1-yl)-5-(2,3-dihydropyrano[4,3,2-de]quinolin-7-yl)-7-methylquinolin-6-yl)-2-tert-butoxyacetic acid], under setting [1], the negative-log EC50 (pEC50) is 7.27.
Same read-out and setting: next, `Cc1cc2c(ccc3nc(C(C)C)cn32)c(-c2ccc3c4c(ccnc24)CCO3)c1[C@H](OC(C)(C)C)C(=O)O` [Compound 60, (S)-2-tert-Butoxy-2-((R)-6-(2,3-dihydropyrano[4,3,2-de]quinolin-7-yl)-2-isopropyl-8-methylimidazo[1,2-a]quinolin-7-yl)acetic acid]: 6.52; `Cc1cc2nc(C(F)F)ccc2c(-c2ccc(Cl)cc2)c1[C@H](OC(C)(C)C)C(=O)O` [Compound 100, (S)-2-tert-butoxy-2-(5-(4-chlorophenyl)-2-(difluoromethyl)-7-methylquinolin-6-yl)acetic acid]: 7.12; `Cc1cc2nc(-c3nccn3C)ccc2c(-c2ccc3c4c(ccnc24)CCO3)c1[C@H](OC(C)(C)C)C(=O)O` (atropisomer, axis not shown) [Compound 84, (S)-2-tert-Butoxy-2-((R)-5-(2,3-dihydropyrano[4,3,2-de]quinolin-7-yl)-7-methyl-2-(1-methyl-1H-imidazol-2-yl)quinolin-6-yl)acetic acid]: 6.48.
